Data on 29 substances can be found in paper PMC8285431, “Machine learning designs non-hemolytic antimicrobial peptides” (Chemical Science, 2021).

Ends that are not written are not given here. Bounds are passed on as bounds.

The subject of series [1] is human red blood cells. To be noted: 10 mM phosphate buffer saline pH 7.4, 25 °C, 4 h, visual inspection, 0.1% Triton X-100 positive control. How it is done: Compounds were subjected to a hemolysis assay to assess the hemolytic effect on human red blood cells (hRBCs). The blood was obtained from Interregionale Blutspende SRK AG, Bern, Switzerland. 1.5 mL of whole blood was centrifuged at 3000 rpm for 15 minutes at 4 °C. The plasma was discarded, and the hRBC pellet was re-suspended in 5 mL of PBS (pH 7.4) then centrifuged at 3000 rpm for 5 minutes at 4 °C. The washing of hRBC was repeated three times and the remaining pellet was re-suspended in 10 mL of PBS.
The samples were prepared as the initial concentration of 4000 μg mL^−1 in PBS, added to the first well of 96-well microtiter plate (TPP, untreated) and diluted serially by 1/2. […] Controls on each plate included a blank medium control (PBS 100 μL) and a hemolytic activity control (0.1% Triton X-100). 100 μL of hRBC suspension was incubated with 100 μL of each sample in PBS in 96-well plate (Nunc 96-Well Polystyrene Conical Bottom MicroWell Plates). After the plates were incubated for 4 h at room temperature, minimal hemolytic concentration (MHC) was determined by visual inspection of the wells. 100 μL supernatants was carefully pipetted to a flat bottom, clear wells plate (TPP® tissue culture plates, polystyrene).

For series [2], the system named is P. aeruginosa. The series can be described thus: MIC, broth microdilution. Format: cell-based, Pseudomonas aeruginosa. The following applies: Mueller–Hinton medium, 16–20 h at 37 °C, trifluoroacetate salts. An excerpt:
(§1) We synthesized the selected 14 GN and 14 GP peptides by solid phase peptide synthesis and evaluated the activity of their HPLC-purified trifluoroacetate salts by determining minimum inhibitory concentrations (MIC) against bacteria by broth microdilution assay in Muller–Hinton medium and minimum hemolysis concentrations (MHC) on human red blood cells by serial dilution in phosphate buffer saline (Table 1).
(§2) To determine the minimal inhibitory concentration (MIC), the broth microdilution method was used. A colony of bacteria was grown in LB (Lysogeny broth) medium overnight at 37 °C. The samples were prepared as stock solutions of 8 mg mL^−1 in H2O, diluted to the initial concentration of 64 or 128 μg mL^−1 in 300 μL Mueller–Hinton (MH) medium, added to the first well of 96-well microtiter plate (TPP, untreated), and diluted serially by 1/2. The concentration of the bacteria was quantified by measuring absorbance at 600 nm and diluted to OD600 = 0.022 in MH medium. The sample solutions (150 μL) were mixed with 4 μL diluted bacterial suspension with a final inoculation of about of 5 × 10^5 CFU. The plates were incubated at 37 °C until satisfactory growth (∼18 h). […] The MIC was defined as the lowest concentration of the peptide dendrimer that inhibited visible growth of the tested bacteria, as detected after treatment with MTT.
Background: In broth dilution the organism is exposed to a series of concentrations in liquid medium.

For series [3], the system named is A. baumannii. The series can be described thus: MIC, broth microdilution. Format: cell-based, Acinetobacter baumannii. The following applies: Mueller–Hinton medium, 16–20 h at 37 °C, trifluoroacetate salts.
Excerpt: as §1, §2

Series [4] relates to MRSA. The series can be described thus: MIC, broth microdilution. Format: cell-based, methicillin-resistant Staphylococcus aureus. To be noted: Mueller–Hinton medium, 16–20 h at 37 °C, trifluoroacetate salts.
Excerpt: as §1, §2

For series [5], the system named is E. coli. Kind of series: MIC, broth microdilution. The following applies: Mueller–Hinton medium, 16–20 h at 37 °C, trifluoroacetate salts. It counts as cell-based, Escherichia coli.
Excerpt: as §1, §2

The test system of series [6] is P. aeruginosa PA14 2P4 (pmrB). Kind of series: MIC, broth microdilution. Format: cell-based. The following applies: spontaneous mutant, polymyxin B resistant; Müller–Hinton medium, 16–20 h, 37 °C; two independent experiments in duplicate. The protocol:
(§3) To determine the minimal inhibitory concentration (MIC), the broth microdilution method was used. A colony of bacteria was grown in LB (Lysogeny broth) medium overnight at 37 °C. The samples were prepared as stock solutions of 8 mg mL^−1 in H2O, diluted to the initial concentration of 64 or 128 μg mL^−1 in 300 μL Mueller–Hinton (MH) medium, added to the first well of 96-well microtiter plate (TPP, untreated), and diluted serially by 1/2. The concentration of the bacteria was quantified by measuring absorbance at 600 nm and diluted to OD600 = 0.022 in MH medium. The sample solutions (150 μL) were mixed with 4 μL diluted bacterial suspension with a final inoculation of about of 5 × 10^5 CFU. The plates were incubated at 37 °C until satisfactory growth (∼18 h). For each test, two columns of the plate were kept for sterility control (broth only) and growth control (broth with bacterial inoculums, no antibiotics). The MIC was defined as the lowest concentration of the peptide dendrimer that inhibited visible growth of the tested bacteria, as detected after treatment with MTT.

For series [7], the system named is P. aeruginosa PA14 4.13 (phoQ). Kind of series: MIC, broth microdilution. Format: cell-based. The following applies: spontaneous mutant, polymyxin B resistant; Müller–Hinton medium, 16–20 h, 37 °C; two independent experiments in duplicate. The protocol:
as §3

In series [8] the test system is P. aeruginosa PA14 4.18 (pmrB). The series can be described thus: MIC, broth microdilution. It counts as cell-based. To be noted: spontaneous mutant, polymyxin B resistant; Müller–Hinton medium, 16–20 h, 37 °C; two independent experiments in duplicate. How it is done:
as §3

The subject of series [9] is P. aeruginosa PA14. The series can be described thus: MIC, broth microdilution. The following applies: Gram-negative; Müller–Hinton medium, 16–20 h, 37 °C; two independent experiments in duplicate. It counts as cell-based. The protocol:
as §3

Series [10] has as its system B. cenocepacia. Format: cell-based. The following applies: MDR Gram-negative strain; Müller–Hinton medium, 16–20 h, 37 °C; two independent experiments in duplicate. The protocol:
as §3

Series [11] deals with E. cloacae. Format: cell-based. The following applies: MDR Gram-negative strain; Müller–Hinton medium, 16–20 h, 37 °C; two independent experiments in duplicate. The protocol:
as §3

Series [12] concerns P. aeruginosa ZEM-1A. Format: cell-based. To be noted: MDR Gram-negative strain; Müller–Hinton medium, 16–20 h, 37 °C; two independent experiments in duplicate. How it is done:
as §3

The test system of series [13] is P. aeruginosa ZEM9A. Format: cell-based. The following applies: MDR Gram-negative strain; Müller–Hinton medium, 16–20 h, 37 °C; two independent experiments in duplicate. How it is done:
as §3

Series [14] relates to S. epidermidis. It counts as cell-based. The following applies: MDR Gram-positive strain; Müller–Hinton medium, 16–20 h, 37 °C; two independent experiments in duplicate; in µg/mL. How it is done:
as §3

Series [15] has as its system S. maltophilia. Format: cell-based. The following applies: MDR Gram-negative strain; Müller–Hinton medium, 16–20 h, 37 °C; two independent experiments in duplicate. How it is done: as §3
Series [16] has as its system K. pneumoniae (OXA-48). It counts as cell-based, Klebsiella pneumoniae. To be noted: MDR Gram-negative strain; Müller–Hinton medium, 16–20 h, 37 °C; two independent experiments in duplicate. How it is done:
as §3

The test system of series [17] is K. pneumoniae NCTC148. Format: cell-based, Klebsiella pneumoniae. The following applies: MDR Gram-negative strain; Müller–Hinton medium, 16–20 h, 37 °C; two independent experiments in duplicate. How it is done:
as §3

For the substance AGRLQKVFKVIAK-NH2 [GN13], the “MHC (minimal hemolytic concentration)” value in series [1] is >2000 µg/mL.

For the substance AKKVVKKIYKRFQK-NH2 [GP10], the “MHC (minimal hemolytic concentration)” value in series [1] was >2000 µg/mL.

As to AKRIRKLIKKIFKKI-NH2 [GN1], the “MHC (minimal hemolytic concentration)” value in series [1] was >2000 µg/mL.

With ARKFRRLVKKLR-NH2 [GP11], in series [1], the “MHC (minimal hemolytic concentration)” value is >2000 µg/mL.

With ARKKWRKRLKKLKI-NH2 [GP9], the “MHC (minimal hemolytic concentration)” value in series [1] is >2000 µg/mL.

ARKWRKFLKKI-NH2 [GP7]: in series [1], the “MHC (minimal hemolytic concentration)” value is >2000 µg/mL.

FLHSIGKAIGRLLR-NH2 [GP3]: the “MHC (minimal hemolytic concentration)” value in series [1] turned out to be 250 µg/mL.

FLKAVKKLIPSLF-NH2 [GP1]: in series [1], the “MHC (minimal hemolytic concentration)” value was determined as 2000 µg/mL.

Turning to GIGAVLNVAKKLL-NH2 [GP4], the “MHC (minimal hemolytic concentration)” value in series [1] was >2000 µg/mL.

Take GNWRKIVHKIKKAG-NH2 [GN12]: in series [1], the “MHC (minimal hemolytic concentration)” value was >2000 µg/mL.

Consider GRIKRIRKIIHKY-NH2 [GP8], for which the “MHC (minimal hemolytic concentration)” value in [1] is >2000 µg/mL.

With IDKWKAAFKKIKNLF-NH2 [GN3], in [1], the “MHC (minimal hemolytic concentration)” value was 500 µg/mL.

For the substance IHKLAKLAKNVL-NH2 [GN14], the “MHC (minimal hemolytic concentration)” value in [1] is >2000 µg/mL.

Take IRRIRKKIKKIFKKI-NH2 [GN10]: the “MHC (minimal hemolytic concentration)” value in series [1] is >2000 µg/mL.

With KFFRKLKKLVKK-NH2 [GN5], the “MHC (minimal hemolytic concentration)” value in series [1] was >2000 µg/mL.

Consider KRIRKWVRRILKKL-NH2 [GN7], for which the “MHC (minimal hemolytic concentration)” value in series [1] was found to be 250 µg/mL.

In the case of KRLWKIRQRIAK-NH2 [GP13], the “MHC (minimal hemolytic concentration)” value in series [1] was >2000 µg/mL.

On to KRLWKRIYRLLKK-NH2 [GN9], for which the “MHC (minimal hemolytic concentration)” value in series [1] worked out at 250 µg/mL.

Turning to KVARFLKKFFR-NH2 [GP5], the “MHC (minimal hemolytic concentration)” value in [1] is >2000 µg/mL.

As to LKKLWKRIIKVGR-NH2 [GP6], the “MHC (minimal hemolytic concentration)” value in series [1] is >2000 µg/mL.

With LNALKKVFQKIH-NH2 [GP14], the “MHC (minimal hemolytic concentration)” value in series [1] was >2000 µg/mL.

In the case of “LNALKKVFQKIRQGL [GN4, ML-generated linear peptide carboxamide from the P. aeruginosa/A. baumannii model]”, the “MIC P. aeruginosa” value in series [2] stood at 32 µg/mL. Also, in series [3], the “MIC A. baumannii” value was determined as 16 µg/mL. The “MIC MRSA” value in series [4] was >64 µg/mL. In addition, in [1], the “MHC (minimal hemolytic concentration)” value was >2000 µg/mL. Moreover, in series [5], the “MIC E. coli” value came out at 4 µg/mL.

In the case of LRKARRLLKKLRARL-NH2 [GN11], the “MHC (minimal hemolytic concentration)” value in [1] was >2000 µg/mL.

As to LRKARRLVKKLA-NH2 [GP12], the “MHC (minimal hemolytic concentration)” value in [1] was >2000 µg/mL.

Regarding LRKFWKKIRKFLKKI-NH2 [GN8], the “MHC (minimal hemolytic concentration)” value in [1] was 62.5 µg/mL.

Polymyxin B displayed an MIC P. aeruginosa PA14 2P4 (pmrB) in series [6] of 2 µg/mL. The MIC P. aeruginosa PA14 4.13 (phoQ) in series [7] turned out to be 1 µg/mL. Moreover, the MIC P. aeruginosa PA14 4.18 (pmrB) in series [8] worked out at 2 µg/mL. Moreover, the MIC P. aeruginosa PA14 in series [9] was < 0.5 µg/mL. Further, in series [10], the MIC B. cenocepacia was > 64 µg/mL. The substance also showed an MIC E. cloacae in [11] of 1 µg/mL. Further, the MIC P. aeruginosa ZEM-1A in series [12] stood at 0.5 µg/mL. Further, the MIC P. aeruginosa ZEM9A in series [13] was found to be 4 µg/mL. Moreover, the “MIC S. epidermidis” value in [14] is reported as 32–64. In series [15], the MIC S. maltophilia is 0.5 µg/mL. Moreover, the MIC K. pneumoniae (OXA-48) in [16] stood at 1 µg/mL. In series [17], this substance gave an MIC K. pneumoniae NCTC148 of 1 µg/mL.

With RLRKKWRKLKKLL-NH2 [GN6], the “MHC (minimal hemolytic concentration)” value in series [1] is 2000 µg/mL.

RRWKWRRKIKKWL-NH2 [GN2]: the “MHC (minimal hemolytic concentration)” value in series [1] was 1000 µg/mL.

Regarding RWRWPILGRILR-NH2 [GP2], the “MHC (minimal hemolytic concentration)” value in [1] worked out at 500 µg/mL.
